Where two headings read alike, the source gives them in different places.
Assays:
[1] = tested on: MOLT-4; test: NCI-60 cytotoxicity screen; assay type: cell-based
[2] = tested on: UO-31; test: NCI-60 cytotoxicity screen; assay type: cell-based
[3] = tested on: SK-OV-3; test: JFCR-39 cytotoxicity screen; assay type: cell-based
[4] = tested on: ACHN; test: JFCR-39 cytotoxicity screen; assay type: cell-based
[5] = tested on: HL-60(TB); test: NCI-60 cytotoxicity screen; assay type: cell-based
[6] = tested on: HCT-15; test: JFCR-39 cytotoxicity screen; assay type: cell-based
[7] = tested on: HCT-15; test: NCI-60 cytotoxicity screen; assay type: cell-based
[8] = tested on: OVCAR-3; conditions: JFCR
[9] = tested on: OVCAR-4; test: JFCR-39 cytotoxicity screen; assay type: cell-based
[10] = tested on: SNB-19; test: NCI-60 cytotoxicity screen; assay type: cell-based
[11] = tested on: RXF 393; test: NCI-60 cytotoxicity screen; assay type: cell-based
[12] = tested on: HCT-116; test: NCI-60 cytotoxicity screen; assay type: cell-based
[13] = tested on: NCI-H23; test: JFCR-39 cytotoxicity screen; assay type: cell-based
[14] = tested on: A549; test: JFCR-39 cytotoxicity screen; assay type: cell-based
[15] = tested on: 786-0; test: NCI-60 cytotoxicity screen; assay type: cell-based
[16] = tested on: SK-MEL-5; test: NCI-60 cytotoxicity screen; assay type: cell-based
[17] = tested on: HS 578T; test: NCI-60 cytotoxicity screen; assay type: cell-based; conditions: Homo sapiens
[18] = tested on: SF-539; test: NCI-60 cytotoxicity screen; assay type: cell-based
[19] = tested on: CCRF-CEM; test: NCI-60 cytotoxicity screen; assay type: cell-based
[20] = tested on: NCI/ADR-RES; test: NCI-60 cytotoxicity screen; assay type: cell-based
[21] = tested on: HCC2998; test: JFCR-39 cytotoxicity screen; assay type: cell-based
[22] = tested on: U251; test: NCI-60 cytotoxicity screen; assay type: cell-based
[23] = tested on: HT29; test: NCI-60 cytotoxicity screen; assay type: cell-based
[24] = tested on: MDA-MB-231; test: JFCR-39 cytotoxicity screen; assay type: cell-based
[25] = tested on: NF-κB p65 subunit translocation in OVCAR-3 cells; test: NF-κB inhibition by immunocytochemical fluorescent staining; assay type: cell-based, human; conditions: 5 μM
Method: Inhibition of NF-κB was detected according to Ataie-Kachoie et al.. Briefly, each group of tested cells were seeded on coverslips treated with HCl and ethanol, and autoclaved prior to use. Immunostaining of the p65 subunit of NF-κB was done by permeabilizing the cells with Triton […], then by treating the cells with anti-NF-κB p65 rabbit monoclonal primary antibody [E379] Abcam # ab32536, followed by Alexa Fluor® 488 Donkey anti-rabbit IgG secondary antibody Biolegend # 406416. Nuclei of cells were stained with 4',6-diamidino-2-phenylindole (DAPI). Images were acquired using fluorescence microscope. Tested cells were divided into five groups which are no treatment control, no primary antibody control, PDTC (50 μM) treated control, NSC745885 (5 μM) and NSC757963 (5 μM) treated controls.

[26] = tested on: MDA-MB-468; test: NCI-60 cytotoxicity screen
[27] = tested on: NCI-H460; test: NCI-60 cytotoxicity screen; assay type: cell-based
[28] = Homo sapiens, Fig 7, read-out: mean log10 of the GI50 values (converted)
[29] = Homo sapiens, five-dose, read-out: GI50
[30] = Homo sapiens, five-dose, read-out: LC50 (the source's name)
[31] = Homo sapiens, read-out: LC50 (the source's name)

O=C1c2ccccc2C(=O)c2c1cc(Cl)c1nsnc21 [NSC757963]
GI50 [1, 28]: 0.437 µM | GI50 [1, 29]: 0.46 µM | CC50 [1, 30]: > 100 µM | TGI ([1]; five-dose): 26.7 µM | GI50 [2, 28]: 6.31 µM | GI50 [2, 29]: 14 µM | CC50 [2, 30]: 52.4 µM | TGI ([2]; five-dose): 27.1 µM | TGI [3]: 14.0 µM | GI50 ([3]; Homo sapiens): 3.2 µM | CC50 [3, 31]: 38 µM | TGI [4]: 3.4 µM | GI50 ([4]; Homo sapiens): 1.8 µM | CC50 [4, 31]: 6.5 µM | GI50 [5, 28]: 1.05 µM | GI50 [5, 29]: 0.42 µM | CC50 [5, 30]: > 100 µM | TGI ([5]; five-dose): 2.22 µM | TGI [6]: 3.9 µM | GI50 ([6]; Homo sapiens): 1.9 µM | CC50 [6, 31]: 7.9 µM | GI50 [7, 28]: 6.61 µM | GI50 [7, 29]: 10.2 µM | CC50 [7, 30]: 55.9 µM | TGI ([7]; five-dose): 23.8 µM | TGI [8]: 4.2 µM | TGI [9]: 3.0 µM | GI50 ([9]; Homo sapiens): 1.6 µM | CC50 [9, 31]: 5.6 µM | GI50 [10, 28]: 9.55 µM | GI50 [10, 29]: 13.9 µM | CC50 [10, 30]: 58.9 µM | TGI ([10]; five-dose): 28.6 µM | GI50 ([11]; Homo sapiens, RXF393, Fig 7, read-out: mean log10 of the GI50 values (converted)): 1.86 µM | GI50 [11, 29]: 2.17 µM | CC50 [11, 30]: 27.1 µM | TGI ([11]; five-dose): 7.21 µM | GI50 [12, 28]: 2.45 µM | GI50 [12, 29]: 3.45 µM | CC50 [12, 30]: 35.3 µM | TGI ([12]; five-dose): 11.8 µM | TGI [13]: 4.1 µM | GI50 ([13]; Homo sapiens): 1.9 µM | CC50 [13, 31]: 8.7 µM | TGI [14]: 43.0 µM | GI50 ([14]; Homo sapiens): 20 µM | CC50 [14, 31]: 95 µM | TGI ([15]; 786–0, five-dose): 31.8 µM | GI50 ([15]; Homo sapiens, 786-0, Fig 7, read-out: mean log10 of the GI50 values (converted)): 6.61 µM | GI50 ([15]; Homo sapiens, 786–0, five-dose, read-out: GI50): 17.2 µM | CC50 ([15]; Homo sapiens, 786–0, five-dose, read-out: LC50 (the source's name)): 58.8 µM | GI50 [16, 28]: 6.92 µM | GI50 [16, 29]: 8.48 µM | CC50 [16, 30]: 46.2 µM | TGI ([16]; five-dose): 21.0 µM | GI50 ([17]; Hs-578T, HS578T, Fig 7, read-out: mean log10 of the GI50 values (converted)): 2.51 µM | GI50 ([17]; HS 578T, five-dose, read-out: GI50): 2.38 µM | CC50 ([17]; HS 578T, five-dose, read-out: LC50 (the source's name)): > 100 µM | GI50 [18, 28]: 9.12 µM | GI50 [18, 29]: 8.23 µM | CC50 [18, 30]: 50.8 µM | TGI ([18]; five-dose): 21.6 µM | GI50 [19, 28]: 0.389 µM | GI50 [19, 29]: 0.33 µM | CC50 [19, 30]: > 100 µM | TGI ([19]; five-dose): 2.37 µM | GI50 [20, 28]: 3.09 µM | GI50 [20, 29]: 3.12 µM | CC50 [20, 30]: > 100 µM | TGI ([20]; five-dose): 18.8 µM | TGI [21]: 3.5 µM | GI50 ([21]; Homo sapiens, HCC 2998): 1.9 µM | CC50 ([21]; Homo sapiens, HCC 2998, read-out: LC50 (the source's name)): 6.4 µM | GI50 ([22]; Homo sapiens, U-251, Fig 7, read-out: mean log10 of the GI50 values (converted)): 2.34 µM | GI50 ([22]; Homo sapiens, U-251, five-dose, read-out: GI50): 3.29 µM | CC50 ([22]; Homo sapiens, U-251, five-dose, read-out: LC50 (the source's name)): 32.7 µM | TGI ([22]; five-dose): 10.4 µM | GI50 ([23]; Homo sapiens, HT-29, Fig 7, read-out: mean log10 of the GI50 values (converted)): 19.5 µM | GI50 ([23]; Homo sapiens, HT-29, five-dose, read-out: GI50): 19.2 µM | CC50 ([23]; Homo sapiens, HT-29, five-dose, read-out: LC50 (the source's name)): 98.2 µM | TGI ([23]; five-dose): 43.4 µM | TGI [24]: 2.9 µM | GI50 ([24]; Homo sapiens): 1.3 µM | CC50 [24, 31]: 6.4 µM | nuclear translocation of the NF-κB p65 subunit [25]: significantly capable of preventing the nuclear translocation of the NF-κB p65 subunit | GI50 ([26]; Homo sapiens, MDA-MB-468): 1.38 µM | CC50 ([26]; Homo sapiens, MDA-MB-468, read-out: LC50): 6.25 µM | inhibition at 10 µM ([26]; Homo sapiens, MDA-MB-468, read-out: growth inhibition): 88.3% | GI50 ([26]; Homo sapiens, MDA-MB-468, read-out: mean log10 of the GI50 values (converted)): 0.631 µM | TGI ([26]; MDA-MB-468, five-dose): 2.93 µM | GI50 ([27]; Homo sapiens, NCI-460, five-dose, read-out: GI50): 30.2 µM | CC50 ([27]; Homo sapiens, NCI-460, five-dose, read-out: LC50 (the source's name)): > 100 µM | GI50 ([27]; Homo sapiens, NCI-H460, Fig 7, read-out: mean log10 of the GI50 values (converted)): 33.1 µM | TGI ([27]; NCI-460, five-dose): >100 µM

Reference: PMC4839570, “Novel Anthra[1,2-c][1,2,5]Thiadiazole-6,11-Diones as Promising Anticancer Lead Compounds: Biological Evaluation, Characterization & Molecular Targets Determination” (PLoS ONE, 2016)
